# According to patent US20240189287A1, “PERIPHERALLY RESTRICTED CB1 RECEPTOR BLOCKERS AND USES THEREOF” (BIONANOSIM (BNS) LTD, priority 2021, published 2024):
# Where two headings read alike, the source gives them in different places.
# What was measured:
# CB1 receptor [1] = biological target: T1, CB1 receptor (Mus musculus (Mouse), UniProt P47746); test: CB1 receptor radioligand binding assay, [3H]CP-55,940 displacement, mouse brain membranes; settings: mouse (m) CB1 receptor; read-out: CB1R Ki (nM) (m)
# T1 sequence (P47746 whole entry): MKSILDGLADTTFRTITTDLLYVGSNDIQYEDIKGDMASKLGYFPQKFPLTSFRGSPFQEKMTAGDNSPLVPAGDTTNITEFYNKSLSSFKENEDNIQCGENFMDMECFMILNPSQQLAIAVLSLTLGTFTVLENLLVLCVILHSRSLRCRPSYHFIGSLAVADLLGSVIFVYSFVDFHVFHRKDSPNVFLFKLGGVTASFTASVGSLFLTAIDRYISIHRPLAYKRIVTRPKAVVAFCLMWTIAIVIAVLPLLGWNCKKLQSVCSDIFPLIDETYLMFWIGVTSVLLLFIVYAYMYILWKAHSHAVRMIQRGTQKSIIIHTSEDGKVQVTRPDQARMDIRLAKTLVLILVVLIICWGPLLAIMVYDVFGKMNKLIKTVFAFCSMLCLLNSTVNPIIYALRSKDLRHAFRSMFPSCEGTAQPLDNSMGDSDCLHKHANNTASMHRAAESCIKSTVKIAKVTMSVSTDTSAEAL
# Experimental: (§1) Radioligand binding assays: Binding affinity was determined by a radioligand binding assay. The different BB8-conjugates binding to CB1 and CB2 receptors was assessed in competition displacement assays using [^3H]CP-55.940 as the radioligand and crude membranes from mouse brain for CB1 receptor and human kidney cells for CB2 receptor.
# (§2) CB1 receptor binding assay: Mouse brain membranes were used as the source material for CB1 receptors. The displacement of specifically bound tritiated CP-55.940 from these membranes using a standard filtration assay was used to determine the Ki values for the test compounds. Briefly. 20 μg of protein was incubated for 1 h at 30° C. in the presence of 0.5 nM [^3H]CP-55,940 and various concentrations (10^−5M-10^−11M) of test compound/control, final volume of 1 mL. The incubation was terminated by rapid filtration and washing, and the amount of specifically bound [^3H]CP-55,940 was determined. Briefly, membranes with bound [^3H]CP-55,940 were separated and washed from free ligand by vacuum filtration, adsorbing the membrane onto a Whatman glass microfiber filter paper ([…], Cat #1821271). Finally, the Whatman filter paper with adsorbed membranes was cut and placed in scintillation liquid (Ultima Gold) for 1 h at 25° C. followed by a β counter reading of bound [^3H]CP-55,940 radioligand. All data were in triplicates with Ki values determined using GraphPad Prism 7.02 analysis software. […] In some cases, membranes from human source were used to determine CB1 receptor binding affinity.
# CB1 receptor [2] = biological target: T1, CB1 receptor; test: [35S]GTPγS binding assay for CB1 receptor, mouse brain membranes; assay type: biochemical; settings: nature of binding: agonist/antagonist/inverse agonist
# Experimental: For CB1 receptor-mouse brains were dissected and P2 membranes prepared and resuspended at ˜2 μg protein/μL in 1 ml assay buffer (50 mM Tris HCl, 9 mM MgCl2, 0.2 mM EDTA, 150 mM NaCl; pH 7.4). Ligand-stimulated [^35S]GTPγS binding was assayed as described previously (Tam et al., JCI 2010). Briefly, membranes (10 μg protein) were incubated in assay buffer containing 100 μM GDP, 0.05 nM [^35S]GTPγS, test compounds at various concentrations (CP55940/Rimonabant as controls and test compounds for BB8 conjugates), and 1.4 mg/mL fatty acid-free BSA in siliconized glass tubes. Membranes with bound ligand ([^35S]GTPγS) were separated from free ligand by vacuum filtration and were analyzed using β counter as described above. Non-specific binding was determined using 10 μM GTPS (cold GTP). Basal binding was assayed in the absence of the tested compound and in the presence of GDP.
# CB2 receptor = CB2 receptor (Homo sapiens (Human), UniProt P34972); test: CB2 receptor radioligand binding assay, [3H]CP-55,940 displacement, human kidney membranes; settings: read-out: hCB2R Ki
# Chain of CB2 receptor (P34972 whole entry): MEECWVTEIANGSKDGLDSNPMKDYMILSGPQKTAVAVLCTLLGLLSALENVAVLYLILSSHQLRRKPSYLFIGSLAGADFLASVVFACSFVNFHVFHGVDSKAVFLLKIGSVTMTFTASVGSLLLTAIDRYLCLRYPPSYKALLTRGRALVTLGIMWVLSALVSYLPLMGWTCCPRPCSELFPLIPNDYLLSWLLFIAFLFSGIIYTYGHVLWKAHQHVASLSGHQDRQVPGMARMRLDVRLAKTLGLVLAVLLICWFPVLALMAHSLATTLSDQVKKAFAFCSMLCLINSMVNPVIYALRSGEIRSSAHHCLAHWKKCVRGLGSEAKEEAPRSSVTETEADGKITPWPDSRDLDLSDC
# Experimental: as §1
# CB2 receptor binding assay: Human kidney membranes were used as the source material for CB2 receptors. The displacement of specifically bound tritiated CP-55,940 from these membranes using a standard filtration assay was used to determine the Ki values for the test compounds. Briefly, 1.25 μg of protein was incubated for 1.5 h at 30° C. in the presence of 0.5 nM [^3H]CP-55,940 and various concentrations (10^−5M-10^−11M) of test compound/control, final volume of 1 mL. The incubation was terminated by rapid filtration and washing, and the amount of specifically bound [^3H]CP-55,940 was determined. Briefly, membranes with bound [^3H]CP-55,940 were separated and washed from free ligand by vacuum filtration, adsorbing the membrane onto a Whatman glass microfiber filter paper ([…], Cat #1821271). Finally, the Whatman filter paper with adsorbed membranes was cut and placed in scintillation liquid (Ultima Gold) for 1 h at 25° C. followed by a β counter reading of bound [^3H]CP-55,940 radioligand. All data were in triplicates with Ki values determined using GraphPad Prism 7.02 analysis software.
# CB1 receptor [3] = biological target: CB1 receptor (Homo sapiens (Human), UniProt P21554); test: CB1 receptor radioligand binding assay, membranes from human source; settings: human (h) CB1 receptor; read-out: CB1R Ki (nM) (h)
# Chain of CB1 receptor (Homo sapiens (Human), UniProt P21554) (P21554 whole entry): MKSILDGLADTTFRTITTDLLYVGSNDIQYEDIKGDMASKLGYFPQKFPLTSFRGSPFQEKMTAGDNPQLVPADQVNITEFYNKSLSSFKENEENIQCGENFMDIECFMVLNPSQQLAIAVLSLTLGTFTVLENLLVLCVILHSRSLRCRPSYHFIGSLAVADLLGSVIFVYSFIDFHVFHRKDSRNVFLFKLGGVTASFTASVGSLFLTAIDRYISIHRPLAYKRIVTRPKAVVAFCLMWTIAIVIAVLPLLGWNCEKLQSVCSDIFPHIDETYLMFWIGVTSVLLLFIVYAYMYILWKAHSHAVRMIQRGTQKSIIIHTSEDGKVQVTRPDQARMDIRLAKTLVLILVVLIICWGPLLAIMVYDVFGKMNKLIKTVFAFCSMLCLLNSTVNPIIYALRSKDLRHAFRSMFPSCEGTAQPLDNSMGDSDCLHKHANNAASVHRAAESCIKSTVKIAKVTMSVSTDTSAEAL
# Experimental: as §1, §2
# HepG2 Cells = test: Cell Viability Assay in HepG2 Cells at 72 h; assay type: cell-based, human; settings: Homo sapiens, HepG2, 72 h; read-out: Relative IC50
# Experimental: The liver plays a central role in transforming and clearing chemicals, and therefore is susceptible to toxicity of these agents. BNS808, BNS822 and other selected compounds were tested in the HepG2 assay using […] to evaluate cytotoxicity.
# MDR1-MDCKII cells = test: MDR1-MDCK II cell permeation assay (bi-directional permeability, P-gp efflux); assay type: in vitro ADME
# Experimental: (§3) Test and reference compounds were diluted with transport buffer (HBSS with 10 mM Hepes, pH 7.4) from stock solution to a concentration of 2 μM (DMSO<1%) and applied to the apical or basolateral side of the cell monolayer. Permeation of the test compounds from A to B direction or B to A direction was determined in duplicate with/without P-gp inhibitor (GF120918, 10 μM). […] The plate was incubated for 2.5 hours in CO2 incubator at 37±1° C., with 5% CO2 at saturated humidity without shaking. In addition, the efflux ratio of each compound was also determined. Test and reference compounds were quantified by LC-MS/MS analysis based on the peak area ratio of analyte/IS.
# (§4) The in vitro bi-directional permeability across MDR1-MDCKII cells including P-glycoprotein (Pgp, ABCB1) efflux in the presence and absence of a P-gp inhibitor is an indicator as to the tendency of an orally administered compound to penetrate the brain.
# P-gp (MDR1, ABCB1) = test: as above; assay type: in vitro ADME; settings: dog; for Papp at 2.5 h, 2 μM: A to B
# Experimental: as §3, §4
# [4] = Tissue distribution: brain, plasma and liver levels after oral dosing; assay type: in vivo, C57BL/6J mice; settings: male, C57BL/6J, mouse, in vivo, po, 10 mg/kg
# Experimental: Tissue distribution and pharmacokinetics: Tissue levels of antagonist: 3 male C57BL/6J mice (7-9 weeks, PO group) were used in this study. Mice were fasted prior to administration of test article and had access to food 4 hours post dosing. Appropriate amount of test article was accurately weighted and mixed with the appropriate volume of vehicle to get a clear oral solution. The formulation was prepared on the day of dosing, and mice were dosed via oral gavage up to 4 hr after formulation was prepared. After 1 hour, mice were scarified and about 200 μL blood was collected from cardiac puncture followed by plasma preparation. Brain and liver were removed and further processed. Dose formulation and sample analysis was performed by LC-MS/MS method.
# The peripherality of selected BB8 conjugates (BNS) was evaluated in vivo measuring their respective brain, plasma, and liver levels 1 hr following 10 mg/kg oral administration.
# CYP 2D6 = CYP 2D6 (Homo sapiens (Human), UniProt P10635); test: CYP inhibition in human liver microsomes; assay type: in vitro ADME; settings: CYP isozyme 2D6, standard inhibitor
# Chain of CYP 2D6 (P10635 whole entry): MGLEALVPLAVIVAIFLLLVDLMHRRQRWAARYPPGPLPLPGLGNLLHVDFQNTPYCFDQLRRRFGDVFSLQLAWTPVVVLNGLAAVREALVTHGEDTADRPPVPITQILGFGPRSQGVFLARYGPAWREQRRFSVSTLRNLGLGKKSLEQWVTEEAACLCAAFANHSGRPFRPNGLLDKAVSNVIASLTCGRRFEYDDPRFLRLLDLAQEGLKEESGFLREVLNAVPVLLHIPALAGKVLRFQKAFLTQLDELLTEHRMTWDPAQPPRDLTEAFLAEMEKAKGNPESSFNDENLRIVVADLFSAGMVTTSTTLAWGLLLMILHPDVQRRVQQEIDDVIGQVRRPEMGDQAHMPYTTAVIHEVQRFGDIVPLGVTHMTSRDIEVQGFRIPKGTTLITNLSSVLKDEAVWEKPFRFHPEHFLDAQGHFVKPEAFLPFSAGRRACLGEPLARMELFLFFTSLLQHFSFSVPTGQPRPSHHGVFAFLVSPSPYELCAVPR
# Experimental: To evaluate the in vitro CYP inhibition of BNS808 and BNS822, the compounds were tested in human liver microsomes that are rich in drug metabolizing enzymes, including CYPs 1A2, 2C9, 2C19, 2D6, 3A4.
# [5] = MDCK-MDR1, pH 7.4, with GF120918, 10 μM, efflux ratio in the presence of P-gp inhibitor GF120918, read-out: MDR1 B:A/A:B (+P-gp inhibitor)
# [6] = MDCK-MDR1, pH 7.4, efflux ratio, without P-gp inhibitor, read-out: MDR1 B:A/A:B
Structure (SMILES),Ki (CB1 receptor [1]) [nM],mCB1R GTPγ[^35S] (activity) (CB1 receptor [2]),Ki (CB2 receptor) [nM],Ki (CB1 receptor [3]) [nM],IC50 (HepG2 Cells) [nM],P-gp substrate (MDR1-MDCKII cells),Rank Papp (MDR1-MDCKII cells),"efflux ratio at 2.5 h, 2 μM (P-gp (MDR1, ABCB1); [5])","Papp at 2.5 h, 2 μM (P-gp (MDR1, ABCB1); MDCK-MDR1, pH 7.4) [×10⁻⁶ cm/s]","efflux ratio at 2.5 h, 2 μM (P-gp (MDR1, ABCB1); [6])",Kp at 1 h [4],% Inhibition (CYP 2D6) [%]
"O=C(NC1CCCOc2c1nn(-c1ccccc1Cl)c2-c1ccc(Cl)cc1)c1cccnc1 (stereo not drawn) [BNS803, N-[2-(2-chlorophenyl)-3-(4-chlorophenyl)-5,6,7,8-tetrahydrooxepino[3,2-c]pyrazol-8-yl]pyridine-3-carboxamide]",22.4,Inverse agonist,> 9110,6.48,,No,High,0.63,13.2,0.77,1.6,
"O=C(NC1CCCOc2c1nn(-c1ccccc1Cl)c2-c1ccc(Cl)cc1)c1nc[nH]n1 (stereo not drawn) [BNS801, N-[2-(2-chlorophenyl)-3-(4-chlorophenyl)-5,6,7,8-tetrahydrooxepino[3,2-c]pyrazol-8-yl]-1H-1,2,4-triazole-3-carboxamide]",805,,,232,,,,,,,,
"C=C[C@H]1C[N@@]2CC[C@H]1C[C@@H]2[C@@H](O)c1ccnc2ccc(OC)cc12 [Quinidine, reference compound]",,,,,,,,,,,,96.2
"CC(C)(Oc1ccc(Cl)cc1)C(=O)NC1CCCOc2c1nn(-c1ccccc1Cl)c2-c1ccc(Cl)cc1 (stereo not drawn) [BNS804, 2-(4-chlorophenoxy)-N-[2-(2-chlorophenyl)-3-(4-chlorophenyl)-5,6,7,8-tetrahydrooxepino[3,2-c]pyrazol-8-yl]-2-methyl-propanamide]",1.16,Antagonist,5700,1.96,,,,,,,,

# Continued, in another order:
Ki (CB1 receptor [1]) [nM],mCB1R GTPγ[^35S] (activity) (CB1 receptor [2]),Ki (CB2 receptor) [nM],Ki (CB1 receptor [3]) [nM],IC50 (HepG2 Cells) [nM],P-gp substrate (MDR1-MDCKII cells),Rank Papp (MDR1-MDCKII cells),"efflux ratio at 2.5 h, 2 μM (P-gp (MDR1, ABCB1); [5])","Papp at 2.5 h, 2 μM (P-gp (MDR1, ABCB1); MDCK-MDR1, pH 7.4) [×10⁻⁶ cm/s]","efflux ratio at 2.5 h, 2 μM (P-gp (MDR1, ABCB1); [6])",Kp at 1 h [4],Structure (SMILES),% Inhibition (CYP 2D6) [%]
33.8,Antagonist,> 9110,7.7,,,,,,,,"CS(=O)(=O)NC1CCCOc2c1nn(-c1ccccc1Cl)c2-c1ccc(Cl)cc1 (stereo not drawn) [BNS809, N-[2-(2-chlorophenyl)-3-(4-chlorophenyl)-5,6,7,8-tetrahydrooxepino[3,2-c]pyrazol-8-yl]methanesulfonamide]",
10,Inverse agonist,1650,1.4,18000,,,,,,,"Cc1ccc(S(=O)(=O)NC2CCCOc3c2nn(-c2ccccc2Cl)c3-c2ccc(Cl)cc2)cc1 (stereo not drawn) [BNS807, N-[2-(2-chlorophenyl)-3-(4-chlorophenyl)-5,6,7,8-tetrahydrooxepino[3,2-c]pyrazol-8-yl]-4-methyl-benzenesulfonamide]",
165,Antagonist; In. Agonist >[c],> 9110,23.7,,,,,,,,"O=C(NC1CCCOc2c1nn(-c1ccccc1Cl)c2-c1ccc(Cl)cc1)c1ncc[nH]1 (stereo not drawn) [BNS806, N-[2-(2-chlorophenyl)-3-(4-chlorophenyl)-5,6,7,8-tetrahydrooxepino[3,2-c]pyrazol-8-yl]-1H-imidazole-2-carboxamide]",
77.8,Inverse agonist,8340,8.75,,Partial,Moderate,0.55,4.93,0.82,,"O=C(NC1CCCOc2c1nn(-c1ccccc1Cl)c2-c1ccc(Cl)cc1)c1cnccn1 (stereo not drawn) [BNS805, N-[2-(2-chlorophenyl)-3-(4-chlorophenyl)-5,6,7,8-tetrahydrooxepino[3,2-c]pyrazol-8-yl]pyrazine-2-carboxamide]",
